These cell lines were tested with C[C@@H](Oc1cc(-c2cnn(C3CCNCC3)c2)cnc1N)c1c(Cl)ccc(F)c1Cl [Crizotinib] + CS(=O)(=O)N1CCN(Cc2cc3nc(-c4cccc5[nH]ncc45)nc(N4CCOCC4)c3s2)CC1 [Pictilisib] (partner 1 µM) (assay: relative viability (nuclei count vs DMSO), 5 days (fraction); higher = more cells survive). Conditions: first compound 0.01 µM.
In short: (§1)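 The day after seeding in 1536-well plates, lung cancer cell lines were treated by pin tool with a single drug, or with a fixed anchor-drug dose together with five library-drug doses (not always all listed) in √10 steps. After 5 days, a combined fix-and-stain solution (final 0.05% Triton X-100, 1% formaldehyde, 1 ug/ml Hoechst) was added. Nuclei counted on 4× images gave relative viability as treated counts over vehicle counts, reported as the median of duplicate plates.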

| Cell Line | relative viability |
| --- | --- |
| NCI-H3122 | 0.533 |
| PC-3 [JPC-3] | 0.687 |
| PC-14 | 0.772 |
| RERF-LC-KJ | 0.502 |
| SK-LU-1 | 0.613 |
| SK-MES-1 | 0.402 |
| SW 1573 | 0.424 |
| UMC-11 | 0.753 |

Same assay, conditions: first compound 0.03162 µM

| Cell Line | relative viability |
| --- | --- |
| NCI-H3122 | 0.6 |
| PC-3 [JPC-3] | 0.804 |
| PC-14 | 0.775 |
| RERF-LC-KJ | 0.628 |
| SK-LU-1 | 0.709 |
| SK-MES-1 | 0.311 |
| SW 1573 | 0.525 |
| UMC-11 | 0.854 |

Same assay, conditions: first compound 0.1 µM

| Cell Line | relative viability |
| --- | --- |
| NCI-H3122 | 0.609 |
| PC-3 [JPC-3] | 0.722 |
| PC-14 | 0.708 |
| RERF-LC-KJ | 0.476 |
| SK-LU-1 | 0.557 |
| SK-MES-1 | 0.35 |
| SW 1573 | 0.558 |
| UMC-11 | 0.803 |

Same assay, conditions: first compound 0.3162 µM

| Cell Line | relative viability |
| --- | --- |
| NCI-H3122 | 0.434 |
| PC-3 [JPC-3] | 0.705 |
| PC-14 | 0.8 |
| RERF-LC-KJ | 0.561 |
| SK-LU-1 | 0.686 |
| SK-MES-1 | 0.299 |
| SW 1573 | 0.459 |
| UMC-11 | 0.161 |

Same assay, conditions: first compound 1 µM

| Cell Line | relative viability |
| --- | --- |
| NCI-H3122 | 0.27 |
| PC-3 [JPC-3] | 0.709 |
| RERF-LC-KJ | 0.621 |
| SK-LU-1 | 0.567 |
| SK-MES-1 | 0.333 |
| SW 1573 | 0.52 |
| UMC-11 | 0.785 |

The cell lines below were run with CC(C)C[C@H](NC(=O)[C@H](CCc1ccccc1)NC(=O)CN1CCOCC1)C(=O)N[C@@H](Cc1ccccc1)C(=O)N[C@@H](CC(C)C)C(=O)[C@@]1(C)CO1 [Carfilzomib] + Cc1cc(Nc2cc(N3CCN(C)CC3)nc(Sc3ccc(NC(=O)C4CC4)cc3)n2)n[nH]1 [Tozasertib] (partner 0.1 µM) in the same assay as above. Conditions: first compound 0.001 µM.
In short: as §1

| Cell Line | relative viability |
| --- | --- |
| NCI-H3122 | 0.371 |
| PC-3 [JPC-3] | 0.859 |
| PC-14 | 0.575 |
| RERF-LC-KJ | 0.501 |
| SK-LU-1 | 0.342 |
| SK-MES-1 | 0.939 |
| SW 1573 | 0.193 |
| UMC-11 | 0.206 |

Same assay, conditions: first compound 0.003162 µM

| Cell Line | relative viability |
| --- | --- |
| NCI-H3122 | 0.428 |
| PC-3 [JPC-3] | 0.926 |
| PC-14 | 0.677 |
| RERF-LC-KJ | 0.478 |
| SK-LU-1 | 0.371 |
| SK-MES-1 | 1.07 |
| SW 1573 | 0.253 |
| UMC-11 | 0.202 |

Same assay, conditions: first compound 0.01 µM

| Cell Line | relative viability |
| --- | --- |
| NCI-H3122 | 0.418 |
| PC-3 [JPC-3] | 0.901 |
| PC-14 | 0.69 |
| RERF-LC-KJ | 0.542 |
| SK-LU-1 | 0.343 |
| SK-MES-1 | 0.998 |
| SW 1573 | 0.23 |
| UMC-11 | 0.205 |

Same assay, conditions: first compound 0.03162 µM

| Cell Line | relative viability |
| --- | --- |
| NCI-H3122 | 0.38 |
| PC-3 [JPC-3] | 0.866 |
| PC-14 | 0.545 |
| RERF-LC-KJ | 0.377 |
| SK-LU-1 | 0.0891 |
| SK-MES-1 | 0.725 |
| SW 1573 | 0.0683 |
| UMC-11 | 0.202 |

Same assay, conditions: first compound 0.1 µM

| Cell Line | relative viability |
| --- | --- |
| NCI-H3122 | 0.132 |
| PC-3 [JPC-3] | 0.374 |
| PC-14 | 0.0359 |
| RERF-LC-KJ | 0.163 |
| SK-LU-1 | 0.109 |
| SK-MES-1 | 0.136 |
| SW 1573 | 0.051 |
| UMC-11 | 0.224 |

The cell lines below were run with O=C(c1cc(Cc2n[nH]c(=O)c3ccccc23)ccc1F)N1CCN(C(=O)C2CC2)CC1 [Olaparib] + COc1cc2c(Oc3ccc(NC(=O)C4(C(=O)Nc5ccc(F)cc5)CC4)cc3F)ccnc2cc1OCCCN1CCOCC1 [Foretinib] (partner 0.25 µM) in the same assay as above. Conditions: first compound 0.08 µM.
In short: as §1

| Cell Line | relative viability |
| --- | --- |
| NCI-H3122 | 0.895 |
| PC-3 [JPC-3] | 1.03 |
| PC-14 | 1.06 |
| RERF-LC-KJ | 0.922 |
| SK-LU-1 | 0.91 |
| SK-MES-1 | 1.05 |
| SW 1573 | 1.01 |
| UMC-11 | 0.893 |

Same assay, conditions: first compound 0.253 µM

| Cell Line | relative viability |
| --- | --- |
| NCI-H3122 | 0.946 |
| PC-3 [JPC-3] | 0.948 |
| PC-14 | 0.892 |
| RERF-LC-KJ | 0.797 |
| SK-LU-1 | 0.657 |
| SK-MES-1 | 0.861 |
| SW 1573 | 0.971 |
| UMC-11 | 0.959 |

Same assay, conditions: first compound 2.53 µM

| Cell Line | relative viability |
| --- | --- |
| NCI-H3122 | 0.873 |
| PC-3 [JPC-3] | 0.985 |
| PC-14 | 0.903 |
| RERF-LC-KJ | 1 |
| SK-LU-1 | 0.748 |
| SK-MES-1 | 0.907 |
| SW 1573 | 0.737 |
| UMC-11 | 0.784 |

Same assay, conditions: first compound 8 µM

| Cell Line | relative viability |
| --- | --- |
| NCI-H3122 | 0.781 |
| PC-3 [JPC-3] | 0.948 |
| PC-14 | 0.684 |
| RERF-LC-KJ | 0.919 |
| SK-LU-1 | 0.526 |
| SK-MES-1 | 0.889 |
| SW 1573 | 0.629 |
| UMC-11 | 0.484 |

What follows are cell lines tested with CC(C)C[C@H](NC(=O)[C@H](CCc1ccccc1)NC(=O)CN1CCOCC1)C(=O)N[C@@H](Cc1ccccc1)C(=O)N[C@@H](CC(C)C)C(=O)[C@@]1(C)CO1 [Carfilzomib] + COc1cccc2cc(-c3nc([C@H]4CC[C@H](C(=O)O)CC4)n4ncnc(N)c34)[nH]c12 [OSI-027] (partner 0.5 µM) in the same assay as above. Conditions: first compound 0.001 µM.
In short: as §1

| Cell Line | relative viability |
| --- | --- |
| NCI-H3122 | 1.01 |
| PC-3 [JPC-3] | 0.801 |
| PC-14 | 0.904 |
| RERF-LC-KJ | 0.551 |
| SK-LU-1 | 0.36 |
| SK-MES-1 | 0.637 |
| SW 1573 | 0.717 |
| UMC-11 | 0.503 |

Same assay, conditions: first compound 0.003162 µM

| Cell Line | relative viability |
| --- | --- |
| NCI-H3122 | 1.05 |
| PC-3 [JPC-3] | 0.775 |
| PC-14 | 0.962 |
| RERF-LC-KJ | 0.525 |
| SK-LU-1 | 0.362 |
| SK-MES-1 | 0.632 |
| SW 1573 | 0.771 |
| UMC-11 | 0.474 |

Same assay, conditions: first compound 0.01 µM

| Cell Line | relative viability |
| --- | --- |
| NCI-H3122 | 1.07 |
| PC-3 [JPC-3] | 0.813 |
| PC-14 | 0.603 |
| RERF-LC-KJ | 0.72 |
| SK-LU-1 | 0.399 |
| SK-MES-1 | 0.652 |
| SW 1573 | 0.403 |
| UMC-11 | 0.496 |

Same assay, conditions: first compound 0.03162 µM

| Cell Line | relative viability |
| --- | --- |
| NCI-H3122 | 0.872 |
| PC-3 [JPC-3] | 0.755 |
| PC-14 | 0.0409 |
| RERF-LC-KJ | 0.322 |
| SK-LU-1 | 0.102 |
| SK-MES-1 | 0.336 |
| SW 1573 | 0.0525 |
| UMC-11 | 0.426 |

Same assay, conditions: first compound 0.1 µM

| Cell Line | relative viability |
| --- | --- |
| NCI-H3122 | 0.154 |
| PC-3 [JPC-3] | 0.352 |
| PC-14 | 0.0529 |
| RERF-LC-KJ | 0.221 |
| SK-LU-1 | 0.138 |
| SK-MES-1 | 0.145 |
| SW 1573 | 0.0647 |
| UMC-11 | 0.211 |
